Measurements from patent US7074768B2, “Modified protein kinase A-specific oligonucleotides and methods of their use” (Idera Pharmaceuticals, Inc., priority 1995, dated 2006).

What was measured:
TGFα = test: Histochemical analysis of GEO tumors: TGFα; assay type: in vivo; conditions: single agent, after two cycles
Source text: Tumor specimens from the different groups of mice were examined by histochemical analysis at different time points to evaluate the expression of a variety of biological parameters.
(§1) TGFα and AR are growth factors which bind to EGFR and control human colon cancer growth through autocrine and paracrine mechanisms (F. Ciardiello and G. Tortora, Clin. Cancer Res. 4:821–828 (1998); D. S. Salomon, Crit. Rev. Oncol. Hematol. 19:183–232 (1995)).

RIα protein = test: Histochemical analysis of GEO tumors: RIα; assay type: in vivo, human
Source text: (§2) Tumor specimens from the different groups of mice were examined by histochemical analysis at different time points to evaluate the expression of a variety of biological parameters. […] No other treatment was able to affect RIα expression.

Ki67 = test: Histochemical analysis of GEO tumors: Ki67 staining; assay type: in vivo; conditions: combination of taxol and HYB 165
Source text: as §2, §1

[1] = tested on: Factor VIII related antigen; test: Tumor-induced neovascularization (anti-Factor VIII related antigen immunohistochemistry); assay type: in vivo
Source text: In recent years, the critical role of tumor-induced neovascularization in neoplastic development, progression and metastasis has been elucidated (J. I. Fokman, In: J. Mendelsohn et al., eds., The Molecular Basis of Cancer, pp 206–232, Philadelphia: W B Saunders (1995) . A reliable histologic estimate of novel blood vessels on tumor specimens is the microvessel count (MVC) in the most intense areas of neovascularization. In the present study, tumor-induced neovascularization was quantified by immunohistochemistry using an anti-Factor VIII related antigen monoclonal antibody (N. Weidner, Breast Cancer Res. Treat., 36:169–180 (1995)).

[2] = tested on: ZR75-1 human breast cancer cells; test: Soft agar growth of ZR75-1 cells; assay type: cell-based; conditions: for inhibition of cell growth: every 48 hours for three times (Examples 24, 25)
Procedure: (§3) Cells (10^4 cells/well) were seeded in 0.5 ml of 0.3% Difco Noble agar (Difco, Detroit, Mich.) supplemented with complete culture medium. This suspension was layered over 0.5 ml of 0.8% agar-medium base layer in 24 multiwell cluster dishes (Becton Dickinson) and treated with various concentrations of docetaxel (day 0). […] Twelve days after the last treatment, cells were stained with nitroblue tetrazolium (Sigma) and colonies larger than 0.05 mm were counted.
as §3
Soft agar growth. Cells (10^4 cells/well) were seeded in 0.5 ml of 0.3% Difco Noble agar (Difco, Detroit, Mich.) supplemented with complete culture medium. This suspension was layered over 0.5 ml of 0.8% agar-medium base layer in 24 multiwell cluster dishes (Becton Dickinson) and treated with various concentrations of docetaxel (day 0). The HYB 165 was added after 12 hrs (day 1) and on day 3. Twelve days after the last treatment, cells were stained with nitroblue tetrazolium (Sigma) and colonies larger than 0.05 mm were counted.
Soft agar growth. Cells (10^4 cells/well) were seeded in 0.5 ml of 0.3% Difco Noble agar (Difco, Detroit, Mich.) supplemented with complete culture medium. This suspension was layered over 0.5 ml of 0.8% agar-medium base layer in 24 multiwell cluster dishes (Becton Dickinson) and treated with various concentrations of docetaxel (day 0). The HYB 508 was added after 12 hrs and on day 2, 3 and 4. After 12 days the cells were stained with nitroblue tetrazolium (Sigma) and colonies larger than 0.05 mm were counted.
Soft agar growth. Cells (10^4 cells/well) were seeded in 0.5 ml of 0.3% Difco Noble agar (Difco, Detroit, Mich.) supplemented with complete culture medium. […] After 12 days the cells were stained with nitroblue tetrazolium (Sigma) and colonies larger than 0.05 mm were counted.
Soft agar growth. Cells (10^4 cells/well) were seeded in 0.5 ml of 0.3% Difco Noble agar (Difco, Detroit, Mich.) supplemented with complete culture medium. This suspension was layered over 0.5 ml of 0.8% agar-medium base layer in 24 multiwell cluster dishes (Becton Dickinson) and treated with various concentrations of HYB 165 or HYB295 every 48 hours for three times. After 12 days the cells were stained with nitroblue tetrazolium (Sigma, St. Louis, Mo.) and colonies larger than 0.05 mm were counted.
Soft agar growth. Cells (10^4 cells/well) were seeded in 0.5 ml of 0.3% Difco Noble agar (Difco, Detroit, Mich.) supplemented with complete culture medium. This suspension was layered over 0.5 ml of 0.8% agar-medium base layer in 24 multiwell cluster dishes (Becton Dickinson) and treated with various concentrations of HYB 165 or HYB508 every 48 hours for three times. After 12 days the cells were stained with nitroblue tetrazolium (Sigma, St. Louis, Mo.) and colonies larger than 0.05 mm were counted.

For “HYB 165: Hybrid 18-mer mixed backbone antisense to PKA RIα, GCGUGCCTCCTCACUGGC (SEQ ID NO:4), 2-O-methyl ribonucleotides at 5′ and 3′ ends (sugars by position and backbone not given here; 2'-O-methyl ribonucleotides at both ends, mixed backbone)”, the “expression of TGFα” value (TGFα) was “inhibited the expression of TGF α and AR”, the “expression of RIα protein in the tumor” value (RIα protein; in combination with taxol, after two cycles) was “further increased” and the “expression of RIα protein in the tumor” value (RIα protein; single agent, after two cycles of treatment, FIG. 18) was “inhited expression of the target RIα protein in the tumor”. The “cell proliferation by Ki67 staining” value (Ki67) was “almost completely suppressed cell proliferation”, the vessel formation ([1]; combined treatment with taxol and HYB 165) was “completely suppressed vessel formation in GEO tumors” and the “inhibition of staining (microvessel count)” value ([1]; single agent, vs untreated mice or scramble MBO) was “about 80%”. For the same substance, the “inhibition of cell growth” value ([2]; 0.1 μM) was “approximately 5%”, the “inhibition of cell growth” value ([2]; 1 μM) was “about 34%” and the “inhibition of cell growth” value ([2]; 2.5 μM) was “over 85%”. It also gave a growth inhibition ([2]; HYB 165 0.1 μM + C225 0.25 μg/ml (days 1, 3) after docetaxel 0.01 nM (day 0)) of 93%, a growth inhibition ([2]; HYB 165 0.1 μM + MAb C225 0.25 μg/ml) of 37% and a growth inhibition ([2]; HYB 165 0.1 μM + MAb C225 0.5 μg/ml) of 65%. For the same substance, the growth inhibition ([2]; HYB 165 0.1 μM + MAb C225 1 μg/ml) was 85%, the growth inhibition ([2]; HYB 165 0.1 μM + MAb C225 2.5 μg/ml) was 90% and the growth inhibition ([2]; HYB 165 0.1 μM after docetaxel 0.01 nM) was 40%. For the same substance, the growth inhibition ([2]; HYB 165 0.1 μM after docetaxel 0.03 nM) was 70%, the growth inhibition ([2]; HYB 165 0.1 μM after docetaxel 0.1 nM) was 86% and the growth inhibition ([2]; HYB 165 0.1 μM after docetaxel 0.3 nM) was 97%. The growth inhibition ([2]; HYB 165 0.1 μM alone (Example 13)) was “about 8%”, the growth inhibition ([2]; HYB 165 0.1 μM alone (Example 21)) was “about 5%” and the growth inhibition ([2]; HYB 165 0.1 μM alone (Example 23)) was “about 2%”. For the same substance, the growth inhibition ([2]; HYB 165 0.5 μM + MAb C225 0.25 μg/ml) was 57%, the growth inhibition ([2]; HYB 165 0.5 μM + MAb C225 0.5 μg/ml) was 70% and the growth inhibition ([2]; HYB 165 0.5 μM + MAb C225 1 μg/ml) was 90%. The growth inhibition ([2]; HYB 165 0.5 μM + MAb C225 2.5 μg/ml) was 98%, the growth inhibition ([2]; HYB 165 0.5 μM after docetaxel 0.01 nM) was 65% and the growth inhibition ([2]; HYB 165 0.5 μM after docetaxel 0.03 nM) was 66%. The growth inhibition ([2]; HYB 165 0.5 μM after docetaxel 0.3 nM) was 99%, the growth inhibition ([2]; HYB 165 0.5 μM after docetaxel 0.1 1 nM) was 86% and the growth inhibition ([2]; HYB 165 0.5 μM alone (Example 21)) was “about 15%”. The growth inhibition ([2]; HYB 165 0.5 μM alone (Example 23)) was “about 10%”, the “cooperative effect of the combination” value ([2]; sequential combination with different doses of docetaxel) was “cooperatively inhibits the growth of ZR75-1 cells” and the “cooperative effect of the combination” value ([2]; with MAb C225 0.25 μg/ml and docetaxel 0.01 nM) was “cooperatively inhibit the growth of ZR75-1 cells”. The “cooperative effect of the combination” value ([2]; with different doses of MAb C225) was “cooperatively inhibit the growth of ZR-75-1 cells”.
